Measurements taken from PubChem BioAssay (NCI).
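Method: 48-hour compound exposure of cells in 96-well plates, five concentrations, linear interpolation of endpoints. At the GI50, growth is halved. TGI: total growth inhibition.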

Assays:
Assay in all cases: inhibition of tumour cell growth, NCI panel, 48 h
[1] = test system: A549 NSCLC
[2] = test system: CAKI-1 renal
[3] = test system: NCI-H522 lung
[4] = test system: RPMI-8226 leukemia
[5] = test system: SK-MEL-2 melanoma
[6] = test system: SK-MEL-28 melanoma
[7] = test system: SN12C renal
[8] = test system: SNB-19 CNS
[9] = test system: SR leukemia
[10] = test system: UO-31 renal

Row | SMILES | GI50 [1] [µM] | TGI [1] [µM] | GI50 [2] [µM] | TGI [2] [µM] | GI50 [3] [µM] | TGI [3] [µM] | GI50 [4] [µM] | TGI [4] [µM] | GI50 [5] [µM] | TGI [5] [µM] | GI50 [6] [µM] | TGI [6] [µM] | GI50 [7] [µM] | TGI [7] [µM] | GI50 [8] [µM] | TGI [8] [µM] | GI50 [9] [µM] | TGI [9] [µM] | GI50 [10] [µM] | TGI [10] [µM]
1 | O=C(CSC(c1ccccc1)c1ccccc1)N/N=C/c1ccccc1Cl | 13.6 | > 57.3 | 37.7 | > 100 | 30.2 | > 100 | 8.73 | > 40.6 | > 62.5 | > 100 | 46.1 | > 100 | 2.66 | 11.8 | 43.9 | > 100 | 9.48 | 26.7 | 30.9 | > 100
2 | O=C1NC2(CCCCC2)C2CCCCC=C12 (centres undefined) | – | > 100 | – | > 100 | – | > 100 | – | > 100 | – | > 100 | – | > 100 | – | > 100 | – | > 100 | – | > 100 | – | > 100
3 | CCOC(=O)/C(C#N)=C\Sc1ccccc1 | – | > 100 | – | 65.9 | – | 11.3 | – | > 100 | – | 74.3 | – | 42.8 | – | 31.7 | – | > 100 | – | 45.2 | – | 24.1
4 | C[C@H]1COCCN1c1nc(-c2cnc(N)cc2C(F)F)nc(N2CCOCC2)n1 | 0.199 | > 100 | 0.102 | – | 0.148 | > 60.8 | 0.134 | 4.91 | 0.232 | 1.12 | 0.115 | 0.994 | 0.159 | > 100 | 0.3 | 13.8 | 0.275 | 29.1 | 0.047 | > 100
5 | Cn1c2c(c3ccccc3c1=O)C(=O)c1ccccc1-2 | – | > 100 | – | > 100 | – | > 100 | – | > 100 | – | > 100 | – | > 100 | – | > 100 | – | > 100 | – | > 100 | – | > 100
